From US9115213B2, “Phenotypic reversion of pancreatic carcinoma cells” (The Research Foundation of State University of New York, priority 2004, dated 2015)
Entries after “also recorded” stand apart in the source; their conditions may differ. Like-named read-outs stand apart in the source and are kept apart here. Where a SMILES comes first, the peptide text is derived from it.

Legend:
BMRPA1 cells = details: cited from earlier work
TUC-3 cells [1] = details: cited from earlier work
[2] = test system: insulin-activated wild-type ras-p21; details: cited from earlier work
[3] = molecular target: T1, oncogenic ras-p21 (Val 12-p21) (Homo sapiens, UniProt P01112, G12V); details: cited from earlier work
T1 construct: host or cells: microinjected into Xenopus laevis oocytes

[4] = test system: BMRPA1 pancreatic acinar cells; experiment: Peptide incubation with normal BMRPA1 cells
Excerpt: As described in several prior publications (16, 17, 20), we have developed two cell lines, one a normal contact-inhibited line of rat pancreatic acinar cells, called BMRPA1.430 (BMRPA1) cells and the other a pancreatic acinar carcinoma obtained by transfection of BMRPA1 cells with a plasmid containing an activated human K-ras oncogene [single base mutation at codon 12, valine substitution for the wild type glycine in the ras protein (K-ras^val12); a kind gift of Dr. M. Perucho (CIBR, La Jolla, Calif.)] and a neomycin resistance gene. […] In addition, they phenotypically maintain differentiated cell functions such as continued enzyme production and activation of zymogen secretion by secretagogue.
Approximately 300,000 cells (either BMRPA1 or TUC-3) were plated in each of six wells and were allowed to adhere overnight. In one set of experiments, the initial media consisted of DMEM with 10% fetal bovine serum that contained no peptide. In another set of experiments, the initial media contained peptide. In the first set, media containing peptide was added after 24 hours; in both sets, after the first 24 hours, the media was changed every 24 hours and always contained peptide at a particular concentration. Cells were observed daily for three weeks for changes in morphology and growth characteristics. Peptides were present at concentrations of […].

TUC-3 cells [5] = experiment: Explantation of peptide-treated, morphologically revertant TUC-3 cells into nude mice; format: in vivo, Nu/Nu mice; details: for Tumor Nodule Size: 5 × 10^6 TUC-3 cells treated 2 weeks with peptide, posterior cervical fat pad, 5 nude mice, mean ± SD
Description: To evaluate cells that appeared to be morphologically revertant to the normal phenotype, approximately 5×10^6 morphologically revertant TUC-3 cells treated for two weeks with 100 μg/ml of PNC-2 were injected subcutaneously into the posterior cervical fatpad of each of five Nu/Nu mice. Similarly, 5×10^6 untreated TUC-3 cells were explanted into another five Nu/Nu mice. Daily observations, over a 120 day period, were made on both sets of mice to determine if tumor nodules appeared at the site of injection.

[6] = test system: ras-transformed pancreatic cancer (TUC-3) cells; experiment: Peptide incubation with TUC-3 cells (morphology, phenotypic reversion); format: cell-based, rat
Val 12-Ha-ras-p21 = molecular target: T2, Val 12-Ha-ras-p21 (Homo sapiens, UniProt P01112, G12V); experiment: Co-immunoprecipitation of raf, MEK, JNK and MAPK with injected Val 12-Ha-ras-p21 in oocytes; format: cell-based, Xenopus laevis; details: peptide co-injected with Val 12-p21 into oocytes; anti-Ha-ras immunoprecipitate (FIG. 4A)
T2 construct: host or cells: protein microinjected into Xenopus laevis oocytes
Description: In these experiments, the Ha-ras form of Val 12-p21 was injected into oocytes (100 ug/ml, 50 nl per oocyte) either alone or together with inhibitory p21 peptide (residues 96-110 shown in this figure). […] The lysate was centrifuged for 15 min at 17000×g at 4° C., and the supernatant was either used directly. The lysates were then subjected to immunoprecipitation using an anti-Ha-ras antibody (CalBiochem). In this procedure, cell lysate was first pre-cleared by incubation with 50 ul of protein A beads for 1 hr at room temperature, followed by centrifugation. Anti-Ha-ras antibody was added to the lysate such that 0.1 ug antibody was added per 250 ug of pre-cleared lysate protein. A volume of 25 μl protein A agarose beads (Sigma) was then added to the incubation mixture, and the resulting mixture was incubated overnight at 4° C., after which the mixture was centrifuged, and the immunoprecipitate was washed three times with 0.5 ml of kinase buffer as described above. Immunoprecipitates were subjected to SDS-PAGE as described above in the preceding paragraph and blotted with anti-Ha-ras (1:2000 with 0.25% BSA), anti-raf (CalBiochem, San Diego, Calif.), diluted 1:2000 with 0.25% BSA, anti-JNK polyclonal antibody (1:2000), anti-MEK (CalBiochem) and anti-MAPK, diluted 1:2000 with 0.25% BSA. […]

[7] = molecular target: Val 12-p21-JNK interaction (Homo sapiens, UniProt P01112, G12V); details: cited from earlier work
[8] = molecular target: T1, oncogenic ras-p21 (Val 12-p21); experiment: Val 12-p21-induced oocyte maturation; format: cell-based, Xenopus laevis; details: peptide injected together with Val 12-p21

## CO[C@@H]1[C@H](N(C)C(=O)c2ccccc2)C[C@H]2O[C@]1(C)n1c3ccccc3c3c4c(c5c6ccccc6n2c5c31)C(=O)NC4 [CGP 41 251]
BMRPA1 cells
  cytotoxicity to BMRPA1 cells: cytotoxic to BMRPA1 cells
TUC-3 cells [1]
  effect on TUC-3 cells: induces both necrosis and phenotypic reversion of TUC-3 cells
  growth of revertant TUC-3 cells in soft agar: fail to grow in soft agar
[2]
  insulin-activated wild-type ras-p21-induced oocyte maturation / signaling: much less effect
[3]
  oncogenic ras-p21-induced oocyte maturation / mitogenic signaling in oocytes: blocks oncogenic ras-p21-induced oocyte maturation

## CC[C@H](C)[C@H](NC(=O)[C@@H](NC(=O)[C@@H](NC(=O)[C@H](CCC(N)=O)NC(=O)[C@H](CCCCN)NC(=O)[C@H](CCCNC(=N)N)NC(=O)[C@H](Cc1ccc(O)cc1)NC(=O)[C@H](CO)NC(=O)[C@H](CC(=O)O)NC(=O)[C@H](CCC(=O)O)NC(=O)[C@@H](NC(=O)[C@@H](N)[C@@H](C)O)[C@@H](C)CC)C(C)C)C(C)C)C(=O)N[C@@H](CC(=O)O)C(=O)O [PNC-7, TIEDSYRKQVVID] (H-TIEDSYRKQVVID-OH)
[4]
  cytotoxicity: lack of cytotoxicity
  effect on growth of BMRPA1 cells: no apparent effects

## CC[C@H](C)[C@H](NC(=O)[C@H](CCCNC(=N)N)NC(=O)[C@H](CCCCN)NC(=O)CNC(=O)[C@@H](NC(=O)[C@H](CO)NC(=O)[C@H](Cc1ccccc1)NC(=O)[C@@H]1CCCN1C(=O)[C@@H](N)CCSC)[C@@H](C)O)C(=O)N[C@@H](CCSC)C(=O)N[C@@H](CC(C)C)C(=O)NCC(=O)N[C@@H](CCC(=O)O)C(=O)N[C@@H](CCCCN)C(=O)N[C@@H](CCCCN)C(=O)N[C@@H](Cc1c[nH]c2ccccc12)C(=O)N[C@@H](CCCCN)C(=O)N[C@@H](CCSC)C(=O)N[C@@H](CCCNC(=N)N)C(=O)N[C@@H](CCCNC(=N)N)C(=O)N[C@@H](CC(N)=O)C(=O)N[C@@H](CCC(N)=O)C(=O)N[C@@H](Cc1ccccc1)C(=O)N[C@@H](Cc1c[nH]c2ccccc12)C(=O)N[C@H](C(=O)N[C@@H](CCCCN)C(=O)N[C@H](C(=O)N[C@@H](CCC(N)=O)C(=O)N[C@@H](CCCNC(=N)N)C(=O)NCC(=O)O)C(C)C)C(C)C [X13-leader, reference compound]
[4]
  effect on morphology of BMRPA1 cells: no effect

## N[C@@H](Cc1ccc(O)cn1)C(=O)O [azatyrosine, reference compound]
[3]
  oncogenic ras-p21-induced oocyte maturation / mitogenic signaling in oocytes: selectively blocks oncogenic ras-p21-induced oocyte maturation

## PNC-2-leader: ras-p21 residues 96-110 (SEQ ID NO:1) with penetratin leader KKWKMRRNQFWVKVQRG attached to its carboxyl terminal end (YREQIKRVKDSDVPKKWKMRRNQFWVKVQRG; amino acid residues 96-110 of oncogenic ras-p21 protein)
TUC-3 cells [5]; cells treated two weeks with 100 ug/ml peptide, explanted subcutaneously
  tumor formation by morphologically revertant TUC-3 cells in nude mice: fail to form tumors up to two months after reversion
[6]
  lowest concentration at which the morphological reversion of TUC-3 cells was achieved: 1 ug/ml
[6]; 1 ug/ml, after two weeks
  phenotypic reversion of TUC-3 cells: complete phenotypic reversion
[6]; 100 μg/ml, 1 week (FIG. 2A)
  change in cell morphology of TUC-3 cells: the cells grow into contact-inhibited monolayers and show distinct cell boundaries
[6]; after one day of treatment (FIG. 2B: 100 μg/ml)
  phenotypic reversion of TUC-3 cells: foci of acinar cellular differentiation appear

## PNC-7-leader: ras-p21 residues 35-47 (TIEDSYRKQVVID, SEQ ID NO:2) with penetratin leader KKWKMRRNQFWVKVQRG attached to its carboxyl terminal end (TIEDSYRKQVVIDKKWKMRRNQFWVKVQRG; peptide amino acid residues 35-47 of oncogenic ras-p21 protein)
[6]; 100 and 200 ug/ml (FIG. 2C: two weeks)
  phenotypic reversion of TUC-3 cells: phenotypic reversion of the cells
[6]; after two weeks of incubation
  concentration at which complete reversion of TUC-3 cells was achieved: ≥ 100 µg/mL

## YREQIKRVKDSDDVP (YREQIKRVKDSDVP; amino acid residues 96-110 of oncogenic ras-p21 protein) [PNC-2]
[4]
  cytotoxicity: lack of cytotoxicity
  effect on growth of BMRPA1 cells: no apparent effects
TUC-3 cells [5]; day 0
  Tumor Nodule Size: 0.0 mm
TUC-3 cells [5]; day 7
  Tumor Nodule Size: 0.0 mm
TUC-3 cells [5]; day 14
  Tumor Nodule Size: 0.0 mm
TUC-3 cells [5]; day 21
  Tumor Nodule Size: 0.0 mm
TUC-3 cells [5]; day 28
  Tumor Nodule Size: 0.0 mm
TUC-3 cells [5]; day 42
  Tumor Nodule Size: 0.0 mm
TUC-3 cells [5]; day 56
  Tumor Nodule Size: 0.0 mm
Val 12-Ha-ras-p21
  co-precipitation of raf, MEK, JNK and MAPK with Val 12-ras-p21: none of these proteins precipitated with Val 12-ras-p21 although there is still some binding to raf
[2]
  insulin-activated wild-type ras-p21-induced oocyte maturation / signaling: little effect; also recorded: do not block insulin-activated wild type ras-induced maturation
[7]
  interferes with / blocks Val 12-p21-JNK interaction: blocks oncogenic ras-p21-JNK interactions; also recorded: blocks the interaction of Val 12-p21 with JNK; also recorded: interferes with Val 12-p21-JNK interaction
[3]
  oncogenic ras-p21-induced oocyte maturation / mitogenic signaling in oocytes: block mitogenic signaling by oncogenic ras-p21 in oocytes; also recorded: block oncogenic ras-induced oocyte maturation
[8]
  Val 12-p21-induced oocyte maturation: strongly inhibits maturation
[6]
  phenotypic reversion of TUC-3 cells: 100%
